Test results from article PMC7690921, “Synthesis and Biological Evaluation of Analogues of Butyrolactone I as PTP1B Inhibitors” (Marine Drugs, 2020).

How the values were obtained:
PTP1B = biological target: T1, PTP1B (Homo sapiens, UniProt P18031); test: PTP1B inhibitory assay (pNPP substrate); type: biochemical; conditions: for IC50: pNPP 1 mM, 37 °C, Mean ± SD (n = 4), read-out: IC50 against PTP1B
T1 sequence (P18031 1-435): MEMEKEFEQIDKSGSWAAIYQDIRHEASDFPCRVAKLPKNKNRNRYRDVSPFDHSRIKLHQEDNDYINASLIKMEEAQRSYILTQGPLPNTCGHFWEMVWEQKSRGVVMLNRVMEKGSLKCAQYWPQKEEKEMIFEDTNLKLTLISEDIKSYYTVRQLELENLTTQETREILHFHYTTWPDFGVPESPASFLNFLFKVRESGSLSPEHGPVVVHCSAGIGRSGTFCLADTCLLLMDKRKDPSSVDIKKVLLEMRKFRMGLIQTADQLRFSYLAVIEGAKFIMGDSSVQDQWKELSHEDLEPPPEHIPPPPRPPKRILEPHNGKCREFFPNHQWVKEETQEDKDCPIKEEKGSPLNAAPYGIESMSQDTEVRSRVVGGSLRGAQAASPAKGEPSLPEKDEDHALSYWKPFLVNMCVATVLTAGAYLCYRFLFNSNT
Experimental: The tested compounds at designated concentrations were solubilized in DMSO, and 2 μL samples was added to 96-well clear polystyrene plate. […] Then, 78 μL of an assay buffer (25 mM Hepes, 150 mM sodium chloride (NaCl), 0.1% bovine serum albumin (BSA), 3 mM dithiothreitol, 1 mM ethylenediaminetetraacetic acid) and 10 μL of the PTP1B (10 μg/mL) was added and incubated for 10 min at 37 °C. The screening was initiated by adding 10 μL p-nitrophenyl phosphate (pNPP), and the catalysis of pNPP (1 mM) was continuously monitored on SpectraMax 340 microplate reader (Molecular Devices, Sunnyvale, CA, USA) at 405 nm for 20 min at 37 °C. The slope of the linear portion of the kinetic curve generated from each well was used to determine the activity of PTP1B. The inhibition effect of the compound was represented by the percentage of the slope of the linear portion of its kinetic curve relative to that of the negative control (DMSO). The IC50 was calculated with Prism 8 software (Graphpad, San Diego, CA, USA) from the non-linear curve fitting of the percentage of inhibition (%inhibition) versus the inhibitor concentration [I] by using the following equation: %Inhibition = 100/(1 + [IC50/[I]] ^k), where k is the Hill coefficient.

IR HepG2 cells = test: Glucose consumed in insulin resistance model of HepG2 cells; type: cell-based; conditions: high glucose and high insulin stimulated HepG2; 24 h treatment
Experimental: HepG2 cells (Cell Bank of Chinese Academy of Sciences, Shanghai, China) were seeded in 96-well plates in normal Dulbecco’s Modified Eagle’ Medium (DMEM, 5.6 mM glucose) supplemented with 10% fetal bovine serum (FBS). The density of the cells in each plate was 1 × 10^4 cells/mL. The original medium was removed when the cells became adherent. For the control group, the medium was replaced with […]. The model of insulin resistance was established by stimulation with high glucose DMEM (30 mM glucose) with 10^−7 mol/L insulin for 48 h. Then, the cells were treated with drug-free or drug-containing DMEM (5.6 mM glucose) containing 0.2% BSA and […] 1 × 10^−9 mol/L insulin for 24 h. Glucose consumption was detected with the glucose oxidase method using a glucose assay kit (Cat#BC2500, Solarbio, Beijing, China).

RIN-m5f cell line = test: Cell proliferation assay (CCK-8), RIN-m5f; type: cell-based; conditions: CCK-8, 48 h
Experimental: The cytotoxic effect of the synthesized butenolides on RIN-m5f (CRL-11605, American Type Culture Collection, Manassas, VA, USA) and HepG2 cells was determined with a Cell Counting Kit 8 (CCK-8) kit (Dojindo, Tokyo, Japan). Cells were seeded into 96-well plates in DMEM with 10% FBS in a volume of 100 µL per well and cultured overnight at 37 °C. The density of the cells in each plate was 1 × 10^4 cells/mL. According to the manufacturer’s protocol, after treatment with DMSO or varying concentrations of BLs for 48 h, 10 µL of CCK-8 solution was added to each well and cells were incubated for 2 h at 37 °C. Measure the absorbance at 450 nm of each well on a SpectraMax 340 microplate reader.

α-glucosidase = biological target: α-glucosidase; design: method as in earlier work; conditions: cited from earlier work
[1] = design: method as in doi:10.1007/s00044-013-0659-4; conditions: read-out: IC50 antioxidant activities; cited from earlier work

SMILES	PTP1B inhibitory activity (in words) (PTP1B)	hypoglycemic effect (glucose consumed / glucose uptake) in IR HepG2 cells (IR HepG2 cells)	cytotoxicity to RIN-m5f cell line (proliferation) (RIN-m5f cell line)	IC50 (PTP1B) [µM]	IC50 (α-glucosidase) [µM]	IC50 [1] [µM]
O=C1OC(Cc2ccc(OCc3ccccc3)cc2)C(c2ccc(O)cc2)=C1O (stereo not drawn) [BL-5]	strong PTP1B inhibitory activity	significant hypoglycemic effect	did not affect the proliferation	–	–	–
COC(=O)C1(c2ccc(OCc3ccccc3)cc2)OC(=O)C(O)=C1c1ccc(O)cc1 (stereo not drawn) [BL-4]	strong PTP1B inhibitory activity	–	–	28.5	–	–
CC(C)=CCc1cc(CC2OC(=O)C(O)=C2c2ccc(O)cc2)ccc1OCc1ccccc1 (stereo not drawn) [BL-6]	strong PTP1B inhibitory activity	did not improve the glucose uptake	significant cytotoxicity	17.2	–	–
CC(C)=CCc1cc(C2OC(=O)C(O)=C2c2ccc(O)cc2)ccc1O (stereo not drawn) [BL-2]	–	–	–	133	–	–
CC(C)=CCc1cc(C2OC(=O)C(O)=C2c2ccc(O)cc2)ccc1OCc1ccccc1 (stereo not drawn) [BL-3]	strong PTP1B inhibitory activity	significant hypoglycemic effect	did not affect the proliferation	–	–	–
COC(=O)[C@]1(Cc2ccc(O)c(CC=C(C)C)c2)OC(=O)C(O)=C1c1ccc(O)cc1 [Butyrolactone I]	–	–	–	–	52.2	51.4
